The test system of experiment [1] is fibroblasts isolated from an individual with NPC1 disease (NPC-25). The experiment in a line: LysoTracker Red staining quantified by FACS in NPC1 patient fibroblasts. The experiment is classed as cell-based, human. The following applies: for LysoTracker Red staining intensity (NPC1-associated cholesterol storage defects): NPC-25 cells; for increased LysoTracker staining in NPC1 patient fibroblasts: Example 2, FIGS. 8 and 9; for fold change in fluorescence (stained/unstained): NPD patient samples, Example 1, FIGS. 4, 5A, 5B; for normalizing fold-change in fluorescence in cells of NPD subjects: in vitro. The procedure:
(D) Bar graphs showing the percentage change of LysoTracker (y-axis) staining intensity in untreated NPC-25 cells (blue bar, set to 100%) as compared to NPC25 cells treated with MβCD, α-T or δ-T (green bars). […] MβCD (Sigma-Aldrich, St. Louis, Mo. cat. #C4555) was resuspended in sterile H2O to a 1 mM stock solution, while α-T and δ-T were dissolved in DMSO to 40 μM, therefore the untreated controls were no drug added for methyl-β-cyclodextrin treatment, and DMSO only added for α-T and δ-T treatment. Statistical analyses performed using Prism (GraphPad).
Cells were cultured in DMEM with fetal bovine serum, L-glutamine, and antibiotics at 5% CO2 in a 37° C. incubator. Cell staining was carried out as follows: Lysotracker-Red Staining Protocol: • Day1—Change media 24 hours before FACS analysis, if treating cells with methyl beta cyclodextrin add the drug as well. • Day2—Note: WORK IN THE DARK, (PROTECT TUBES FROM THE LIGHT while using lysotracker-red) • Dilute LYSOTRACKER-red (1:1000) for a final concentration of 1 μM with culture media. • Incubate cells with lysotracker in the incubator (37° C.) for 30 minutes. • Aspirate media and wash twice with 1×PBS (2 mls each time). • Add 300 μls of Trypsin • Resuspend cells into 5 mls of media and centrifuge at 1000 rpm for 10 minutes in order to obtain pellet. • Resuspend the pellet into 500 uls of media and transfer to FACS vials at 4° C. in the dark. • Perform FACS analysis.
The fluorescence of the cell samples was quantified before and after staining and the fold change in fluorescence was calculated as the ratio of fluorescent intensity after dye/cell autofluorescence. This change was then plotted as a function of time.
Cells were plated onto 60 mm tissue culture dishes and cultured to 70-80% confluency. Media were replaced 24 h prior to analysis. On the day of analysis, cells were incubated at 37° C. for 30 min in fresh media containing 1 μM LysoTracker Red dye (LysoTracker) in 3 mL medium/60 mm dish. Cells were then given two PBS washes, trypsinized, pelleted and resuspended in 500 μL medium. FACS data were collected on 10,000 cells using a FACSCalibur (Becton Dickinson Biosciences, Franklin Lakes, N.J.) equipped with Cell Quest software and analyzed using FlowJo (Tree Star). Fold change in LysoTracker staining was calculated as the ratio of geometric means of stained/unstained samples. Duplicate biological replicates were analyzed on three different days, totaling 6 independent samples per cell line.
A general note: In flow cytometry, cells or beads pass a laser one at a time.

The subject of experiment [2] is cultured cells. The conditions noted are these: cited from earlier work.
Experiment [3] deals with fibroblasts (NPC1, NPC2, Wolman, Batten, Fabry, Farber, Niemann-Pick A, Sanfilippo type B, Tay-Sachs diseases). The following applies: 40 μM, fibroblasts of NPC1, NPC2, Wolman; cited from earlier work.
In experiment [4] the test system is control fibroblasts (CTL1). The experiment in a line: LysoTracker Red staining quantified by FACS in control (wild type) fibroblasts. The experiment is classed as cell-based, human. The conditions noted are these: wild type samples, Example 1, FIGS. 4, 5A. The procedure:
(A, B) Histograms of FACS analysis of control fibroblasts (A, CTL1) and fibroblasts isolated from an individual with NPC1 disease (B, NPC-25). […] Pink line indicates distribution of unstained cells; blue line indicates LysoTracker-stained cells transfected with an empty control vector (pLenti6.2 Vector/V5 DEST, Invitrogen); green line indicates LysoTracker-stained cells transfected with a human NPC1 cDNA expression vector (Origene, Rockville, Md.; cat. #SC120010). At 72 hours post-transfection, cells were stained with LysoTracker Red dye and analyzed by FACS. […]
The fluorescence of the cell samples was quantified before and after staining and the fold change in fluorescence was calculated as the ratio of fluorescent intensity after dye/cell autofluorescence. […]
Cells were plated onto 60 mm tissue culture dishes and cultured to 70-80% confluency. […] FACS data were collected on 10,000 cells using a FACSCalibur (Becton Dickinson Biosciences, Franklin Lakes, N.J.) equipped with Cell Quest software and analyzed using FlowJo (Tree Star). Fold change in LysoTracker staining was calculated as the ratio of geometric means of stained/unstained samples. Duplicate biological replicates were analyzed on three different days, totaling 6 independent samples per cell line.

The test system of experiment [5] is fibroblasts isolated from an individual with NPC1 disease (NPC-25). The experiment in a line: LysoTracker Red staining quantified by FACS in NPC1 patient fibroblasts. The experiment is classed as cell-based, human. The following applies: NPC4 cells.

“Also recorded” adds a separate entry of the source.

For `Cc1c(C)c2c(c(C)c1O)CC[C@@](C)(CCC[C@H](C)CCC[C@H](C)CCCC(C)C)O2` [α-T, α-tocopherol], the “LysoTracker Red staining intensity (NPC1-associated cholesterol storage defects)” value (from here on “LysoTracker Red staining intensity”) in experiment [1] (40 μM α-T for 72 hours, vs DMSO only) is “not”.

On to `OC[C@H]1O[C@@H]2O[C@H]3[C@H](O)[C@@H](O)[C@@H](O[C@H]4[C@H](O)[C@@H](O)[C@@H](O[C@H]5[C@H](O)[C@@H](O)[C@@H](O[C@H]6[C@H](O)[C@@H](O)[C@@H](O[C@H]7[C@H](O)[C@@H](O)[C@@H](O[C@H]8[C@H](O)[C@@H](O)[C@@H](O[C@H]1[C@H](O)[C@H]2O)O[C@@H]8CO)O[C@@H]7CO)O[C@@H]6CO)O[C@@H]5CO)O[C@@H]4CO)O[C@@H]3CO` [β-cyclodextrin], for which the “removal of cholesterol from cultured cells” value in experiment [2] is given as “remove cholesterol”.

As to `Cc1cc(O)cc2c1O[C@](C)(CCC[C@H](C)CCC[C@H](C)CCCC(C)C)CC2` [δ-T, δ-tocopherol], in experiment [1], the “increased LysoTracker staining in NPC1 patient fibroblasts” value is “lessened”. In addition, the “LysoTracker Red staining intensity” value in experiment [1] (40 μM δ-T for 72 hours, vs DMSO only) is “relieved NPC1-associated cholesterol storage defects”. Further, the “lysosomal storage defects (including LysoTracker staining)” value in experiment [3] was “reduced lysosomal storage defects”.

Turning to Methyl-β-cyclodextrin [MβCD], in experiment [1], the “increased LysoTracker staining in NPC1 patient fibroblasts” value was “lessened” and the “fold change in fluorescence (stained/unstained)” value was “reduced”. The “LysoTracker Red staining intensity” value in experiment [1] (300 μM MβCD for 24 hours, vs untreated cells (100%)) is given as “relieved NPC1-associated cholesterol storage defects”. Also, the “fold change in fluorescence (stained/unstained)” value in experiment [4] is reported as “reduced”. The “removal of cholesterol from cultured cells” value in experiment [2] is “remove cholesterol; also recorded: more efficient than β-cyclodextrin”.

In the case of Tocopherol, in experiment [1], the “fold change in fluorescence (stained/unstained)” value was “effective in reducing the fold change in fluorescence” and the “normalizing fold-change in fluorescence in cells of NPD subjects” value was “useful in normalizing fold-change in fluorescence”.

Take cyclodextrin: the “normalizing fold-change in fluorescence in cells of NPD subjects” value in experiment [1] is on record as “useful in normalizing fold-change in fluorescence; also recorded: normalize the fold-change in fluorescence”. The “fluorescence values by FACS (FIG. 1A)” value in experiment [5] was “corrected”.

These data come from patent publication US9983200B2, “Compositions and methods for predicting age of onset of a lysosomal storage disease or a disease associated with a lysosomal defect” (The United States of America, as represented by the …, priority 2013, dated 2018).
